Measurements reported in article PMC8945123 (ACS Omega, 2022).
Where “and” joins values, the source holds several entries; their conditions need not be identical. Identical values can stand only once. Entries after “also recorded” stand apart in the source; their conditions may differ. Like-named read-outs stand apart in the source and are kept apart here.

Legend:
eeAChE = eeAChE (Electrophorus electricus, UniProt O42275); test: In vitro eeAChE inhibition, Ellman's method; type: biochemical; conditions: for IC50: mean ± SEM (n = 3)
eqBChE = eqBChE (Equus caballus, UniProt P81908); test: In vitro eqBChE inhibition, Ellman's method; type: biochemical
hMAO-A = target: T1, hMAO-A (Homo sapiens, UniProt P21397); test: In vitro inhibition of recombinant human MAO-A, fluorometric; type: biochemical; conditions: for IC50 (μM) ± SEM hMAO-A: mean ± SEM (n = 3)
T1 sequence (P21397 1-527): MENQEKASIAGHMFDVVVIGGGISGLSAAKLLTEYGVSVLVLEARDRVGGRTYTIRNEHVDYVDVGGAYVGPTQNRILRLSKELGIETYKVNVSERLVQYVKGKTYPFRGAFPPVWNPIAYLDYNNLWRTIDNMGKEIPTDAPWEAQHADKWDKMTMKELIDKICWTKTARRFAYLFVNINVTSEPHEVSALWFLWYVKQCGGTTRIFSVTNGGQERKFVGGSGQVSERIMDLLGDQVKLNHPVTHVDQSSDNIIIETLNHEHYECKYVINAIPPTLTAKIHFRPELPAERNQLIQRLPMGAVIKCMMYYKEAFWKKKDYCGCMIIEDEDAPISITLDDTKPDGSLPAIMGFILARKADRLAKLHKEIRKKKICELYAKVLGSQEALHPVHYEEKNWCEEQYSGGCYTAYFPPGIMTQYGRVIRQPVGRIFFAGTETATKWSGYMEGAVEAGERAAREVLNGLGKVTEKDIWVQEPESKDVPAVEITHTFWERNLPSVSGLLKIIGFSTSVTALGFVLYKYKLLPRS

hMAO-B = target: T2, hMAO-B (Homo sapiens, UniProt P27338); test: In vitro inhibition of recombinant human MAO-B, fluorometric; type: biochemical
T2 sequence (P27338 1-520): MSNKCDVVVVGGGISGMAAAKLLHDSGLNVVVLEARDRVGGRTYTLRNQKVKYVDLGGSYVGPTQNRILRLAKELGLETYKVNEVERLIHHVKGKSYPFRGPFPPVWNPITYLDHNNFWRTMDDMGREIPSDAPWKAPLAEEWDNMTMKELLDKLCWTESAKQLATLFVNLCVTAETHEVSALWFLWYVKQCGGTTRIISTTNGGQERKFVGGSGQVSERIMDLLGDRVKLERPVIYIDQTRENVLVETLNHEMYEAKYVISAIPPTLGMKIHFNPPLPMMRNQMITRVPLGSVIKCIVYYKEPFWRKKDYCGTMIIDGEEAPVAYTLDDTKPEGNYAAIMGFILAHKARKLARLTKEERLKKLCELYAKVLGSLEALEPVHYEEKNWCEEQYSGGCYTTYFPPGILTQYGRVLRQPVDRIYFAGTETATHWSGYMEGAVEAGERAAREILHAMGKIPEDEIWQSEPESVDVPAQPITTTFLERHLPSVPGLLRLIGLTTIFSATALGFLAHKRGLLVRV

animals = test: Acute oral toxicity in animals; type: in vivo; conditions: doses from 50 to 2000 mg/kg body weight, eight animals per group
[1] = Neurotoxicity MTT assay on neuroblastoma SH-SY5Y cells; type: cell-based; conditions: human
[2] = PAMPA-BBB permeation assay; conditions: prediction of BBB penetration from Pe
acetylcholinesterase = acetylcholinesterase (Electrophorus electricus, UniProt O42275); test: Kinetic analysis of AChE inhibition; type: biochemical
Sequence of acetylcholinesterase (O42275 24-633): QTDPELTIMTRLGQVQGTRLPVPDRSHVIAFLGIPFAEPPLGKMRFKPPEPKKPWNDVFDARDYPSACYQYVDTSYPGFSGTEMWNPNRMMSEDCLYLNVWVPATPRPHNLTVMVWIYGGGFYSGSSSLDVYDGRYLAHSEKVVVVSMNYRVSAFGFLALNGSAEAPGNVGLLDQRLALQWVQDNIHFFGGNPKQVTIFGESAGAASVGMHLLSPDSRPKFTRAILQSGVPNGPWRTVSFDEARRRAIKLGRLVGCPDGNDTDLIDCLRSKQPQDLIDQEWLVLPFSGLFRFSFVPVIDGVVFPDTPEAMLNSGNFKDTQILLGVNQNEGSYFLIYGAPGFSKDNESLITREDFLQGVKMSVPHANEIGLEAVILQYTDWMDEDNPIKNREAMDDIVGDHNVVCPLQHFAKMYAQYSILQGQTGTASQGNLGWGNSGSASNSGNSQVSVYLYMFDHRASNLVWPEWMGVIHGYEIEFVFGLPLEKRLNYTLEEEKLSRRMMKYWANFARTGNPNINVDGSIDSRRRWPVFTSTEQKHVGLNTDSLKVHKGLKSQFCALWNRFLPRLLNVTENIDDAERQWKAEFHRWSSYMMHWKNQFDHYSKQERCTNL

Sequence of eeAChE (O42275 24-633): as above
Sequence of eqBChE (P81908 whole entry): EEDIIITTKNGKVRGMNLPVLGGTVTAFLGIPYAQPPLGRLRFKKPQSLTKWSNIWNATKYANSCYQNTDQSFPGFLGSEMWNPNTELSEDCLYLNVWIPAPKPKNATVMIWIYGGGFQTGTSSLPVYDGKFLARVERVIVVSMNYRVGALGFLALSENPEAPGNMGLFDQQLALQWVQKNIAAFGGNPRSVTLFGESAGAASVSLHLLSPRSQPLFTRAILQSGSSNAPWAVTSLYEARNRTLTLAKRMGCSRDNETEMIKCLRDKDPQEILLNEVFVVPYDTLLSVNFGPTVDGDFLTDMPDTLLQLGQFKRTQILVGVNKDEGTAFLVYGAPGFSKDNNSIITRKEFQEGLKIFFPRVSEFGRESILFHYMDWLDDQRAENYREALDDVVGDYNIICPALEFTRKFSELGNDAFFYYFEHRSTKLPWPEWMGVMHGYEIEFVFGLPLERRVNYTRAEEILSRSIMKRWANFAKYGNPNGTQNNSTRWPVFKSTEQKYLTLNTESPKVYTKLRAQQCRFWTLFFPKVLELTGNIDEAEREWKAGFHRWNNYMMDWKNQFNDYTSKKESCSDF

| SMILES | SI = selectivity index = IC50 of eqBChE/IC50 of eeAChE (eeAChE) | IC50 (eeAChE; IC50 (μM) ± SEM eeAChE) | IC50 (eqBChE) [µM] | IC50 (hMAO-A) [µM] | IC50 (hMAO-B) [µM] | SI = selectivity index = IC50 of hMAO-A/IC50 of hMAO-B (hMAO-B) | prediction (PAMPA-BBB) (CNS+, CNS–) [2] | further results |
| --- | --- | --- | --- | --- | --- | --- | --- | --- |
| COc1ccc(C2CC(=O)C3=C(C2)N=c2s/c(=C\c4ccc(OCc5ccccc5)cc4)c(=O)n2C3c2c[nH]c3ccccc23)cc1 (centres unmarked) [Compound 33] | 1.3 | 0.79 ± 0.09 µM | 1.01 ± 0.06 | 48.4 ± 2.28 | 0.67 ± 0.01 | 72.2 | – | – |
| O=C1CC(c2ccccc2)CC2=C1C(c1c[nH]c3ccccc13)n1c(s/c(=C\c3ccc(OCCNCCc4c[nH]c5ccccc45)cc3)c1=O)=N2 (centres unmarked) [Compound 36] | 17.2 | 0.081 ± 0.03 µM | 1.39 ± 0.06 | – | 0.1 ± 0.01 | – | – | IC50 (μM) ± SEM hMAO-A (hMAO-A): not able to show MAO-A inhibition activity at tested concentration |
| COc1ccc(C2CC(=O)C3=C(C2)N=c2s/c(=C\c4ccc(OCCNCCc5c[nH]c6ccccc56)cc4)c(=O)n2C3c2c[nH]c3ccccc23)cc1 (centres unmarked) [Compound 37] | 14.2 | 0.07 µM and 0.069 µM | 0.98 ± 0.11 | – | 0.14 ± 0.01 | – | CNS+ (‘CNS+’ (prediction of high BBB permeation); Pe (10^–6 cm/s) > 4.39) | IC50 (μM) ± SEM hMAO-A (hMAO-A): not able to show MAO-A inhibition activity at tested concentration; acute toxicity (survival, clinical signs) (animals): All animals were found alive; viability at 1 µM [1]: 96.1 ± 0.98%; viability at 10 µM [1]: 92.1 ± 1.09%; viability at 20 µM [1]: 90.33 ± 0.83%; viability at 40 µM [1]: 88.2 ± 1.55% |
| COc1ccc(C2CC(=O)C3=C(C2)N=c2s/c(=C\c4c[nH]c5ccccc45)c(=O)n2C3c2c[nH]c3ccccc23)cc1 (centres unmarked) [Compound 28] | 11.8 | 0.89 ± 0.1 µM | 10.5 ± 1.09 | 36.9 ± 1.22 | 0.31 ± 0.01 | 119.2 | – | – |
| CC(=O)[C@H]1CC[C@H]2[C@@H]3CCC4=CC(=O)CC[C@]4(C)[C@H]3CC[C@]12C [progesterone] | – | – | – | – | – | – | CNS+ (‘CNS+’ (prediction of high BBB permeation); Pe (10^–6 cm/s) > 4.39) | – |
| CC1(C)CC(=O)C2=C(C1)N=c1s/c(=C\c3ccc(OCCNCCc4c[nH]c5ccccc45)cc3)c(=O)n1C2c1c[nH]c2ccccc12 (centres unmarked) [Compound 35] | 15.0 | 0.04 µM and 0.042 µM | 0.63 ± 0.07 | 1.93 ± 0.01 | 0.33 ± 0.01 | 5.8 | CNS+ (‘CNS+’ (prediction of high BBB permeation); Pe (10^–6 cm/s) > 4.39) | Ki (acetylcholinesterase): 0.012 µM; type of inhibition (acetylcholinesterase; Lineweaver–Burke double reciprocal plot): mixed inhibition mode; also recorded: mixed-type inhibition; acute toxicity (survival, clinical signs) (animals): All animals were found alive; viability at 1 µM [1]: 98.9 ± 1.23%; viability at 10 µM [1]: 95.2 ± 1.54%; viability at 20 µM [1]: 94.9 ± 1.01%; viability at 40 µM [1]: 91.6 ± 1.59% |
| O=C1CC(c2ccccc2)CC2=C1C(c1c[nH]c3ccccc13)n1c(s/c(=C\c3ccc(OCc4ccccc4)cc3)c1=O)=N2 (centres unmarked) [Compound 32] | 1.9 | 0.86 ± 0.14 µM | 1.7 ± 0.11 | 11.2 ± 1.3 | 0.81 ± 0.01 | 13.9 | – | – |
| CCn1cc(C(=O)O)c(=O)c2cc(F)c(N3CCNC(C)C3)c(F)c21 (centres unmarked) [lomefloxacin] | – | – | – | – | – | – | CNS- (“CNS-” (prediction of low BBB permeation); Pe (10^–6 cm/s) < 1.78) | – |
| O=C1CCCC2=C1C(c1c[nH]c3ccccc13)n1c(s/c(=C\c3ccc(OCc4ccccc4)cc3)c1=O)=N2 (centres unmarked) [Compound 30] | 1.9 | 4.67 ± 0.29 µM | 8.97 ± 0.77 | 0.48 ± 0.03 | 0.37 ± 0.01 | 1.3 | – | acute toxicity (survival, clinical signs) (animals): All animals were found alive |
| CC1(C)CC(=O)C2=C(C1)N=c1s/c(=C\c3c[nH]c4ccccc34)c(=O)n1C2c1c[nH]c2ccccc12 (centres unmarked) [Compound 26] | 3.1 | 6.21 ± 0.16 µM | 19.3 ± 1.14 | 0.57 ± 0.08 | 0.24 ± 0.01 | 2.4 | – | – |
| NCCc1ccc(O)c(O)c1 [dopamine] | – | – | – | – | – | – | CNS- (“CNS-” (prediction of low BBB permeation); Pe (10^–6 cm/s) < 1.78) | – |
| O=C1CCCC2=C1C(c1c[nH]c3ccccc13)n1c(s/c(=C\c3ccc(OCCNCCc4c[nH]c5ccccc45)cc3)c1=O)=N2 (centres unmarked) [Compound 34] | 3.7 | 0.12 ± 0.01 µM | 0.44 ± 0.01 | 1.5 ± 0.01 | 0.28 ± 0.01 | 5.3 | – | – |
| Cc1nnc2n1-c1ccc(Cl)cc1C(c1ccccc1)=NC2 [alprazolam] | – | – | – | – | – | – | CNS+ (‘CNS+’ (prediction of high BBB permeation); Pe (10^–6 cm/s) > 4.39) | – |
| O=C1CC(c2ccccc2)CC2=C1C(c1c[nH]c3ccccc13)n1c(s/c(=C\c3c[nH]c4ccccc34)c1=O)=N2 (centres unmarked) [Compound 27] | 14.1 | – | 13.7 ± 1.21 | 9.36 ± 1.01 | 0.47 ± 0.01 | 19.9 | – | IC50 (eeAChE; read-out: IC50 (μM) ± SEM eeAChE): 0.97 ± 0.1 µM |
| CC1(C)CC(=O)C2=C(C1)N=c1s/c(=C\c3ccc(OCc4ccccc4)cc3)c(=O)n1C2c1c[nH]c2ccccc12 (centres unmarked) [Compound 31] | 3.7 | 3.71 ± 0.11 µM | 13.9 ± 0.99 | 0.63 ± 0.04 | 0.38 ± 0.01 | 1.6 | – | – |
